Earlier results, collected in PubChem BioAssay AID1259409 (Chemical Carcinogenesis Research Information System (CCRIS), 2018).

System: rodent chemically induced tumor inhibition, incidence and multiplicity
Assay: CCRIS tumor inhibitor studies
Conditions: Route [Inhibitor]: ORAL, Promoter: NONE USED

Structure (SMILES): CC1=C(CC(=O)O)c2cc(F)ccc2/C1=C\c1ccc(S(C)=O)cc1 (stereo unspecified)
- tumour outcome (control, treated, inhibition, significance) (Carcinogen: 1,2-DIMETHYLHYDRAZINE HYDROCHLORIDE, 306-37-6, Dose [Inhibitor]: 5 MG/KG BW IN DRINKING WATER ADMINISTERED CONCURRENTLY WITH CARCINOGEN FOR 24 WK (STUDY DURATION: 24 WK), Species: MOUSE, Strain/Sex: BALB/FEMALE, Target Tissue: Type of Lesion: COLON: MICROADENOMA, Dose [Carcinogen]: 25 MG/KG BW IN 0.4% EDTA AND 0.9% NORMAL SALINE 1/WK FOR 24 WK): 35/38 (92%), 18/38 (47%), 49%, not calculated
- tumour outcome (control, treated, inhibition, significance) (Carcinogen: 1,2-DIMETHYLHYDRAZINE HYDROCHLORIDE, 306-37-6, Dose [Inhibitor]: 5 MG/KG BW IN DRINKING WATER BEGINNING 10 D POST LAST CARCINOGEN DOSE AND CONTINUING FOR 78 D (STUDY DURATION: 28 WK), Species: MOUSE, Strain/Sex: BALB/FEMALE, Target Tissue: Type of Lesion: COLON: MICROADENOMA, Dose [Carcinogen]: 25 MG/KG BW IN 0.4% EDTA AND 0.9% NORMAL SALINE 1/WK FOR 17 WK): 15/18 (83%), 13/18 (72%), 13%, not calculated
- tumour outcome (control, treated, inhibition, significance) (Carcinogen: 1-METHYL-1-NITROSOUREA, 684-93-5, Dose [Inhibitor]: 0, 0.06% IN A PURIFIED HIGH-FAT (24.6%) DIET FOR 37 WK BEGINNING 1 WK POST CARCINOGEN DOSE (STUDY DURATION:38 WK), Species: RAT, Strain/Sex: SPRAGUE-DAWLEY/FEMALE, Target Tissue: Type of Lesion: MAMMARY GLAND: CARCINOMA, Dose [Carcinogen]: 12.5 MG/KG BW ONCE): 30%, 9%, 70%, p<0.05
- tumour outcome (control, treated, inhibition, significance) (Carcinogen: 1-METHYL-1-NITROSOUREA, 684-93-5, Dose [Inhibitor]: 0, 0.06% IN DIET FOR DURATION OF STUDY BEGINNING 7 D POST CARCINOGEN DOSE (STUDY DURATION: 24 WK), Species: RAT, Strain/Sex: SPRAGUE-DAWLEY/FEMALE, Target Tissue: Type of Lesion: MAMMARY GLAND: ADENOCARCINOMA, Dose [Carcinogen]: 50 MG/KG ONCE): 93%, 87%, 6%, not significant
- tumour outcome (control, treated, inhibition, significance) (Carcinogen: 4-(METHYLNITROSAMINO)-1-(3-PYRIDYL)-1-BUTANONE, 64091-91-4, Dose [Inhibitor]: 0, 0.13 G/KG DIET (EFFECTIVE DOSE 0.95 UMOL/D) BEGINNING 2 WK PRIOR TO CARCINOGEN TREATMENT AND CONTINUING FOR DURATION, Species: MOUSE, Strain/Sex: STRAIN-A/FEMALE, Target Tissue: Type of Lesion: LUNG: TUMORS, Dose [Carcinogen]: 9.0-9.2 MG/MOUSE (TOTAL DOSE) IN DRINKING WATER ADMINISTERED OVER 7 WK): 28/28 (100%), 23/25 (92%), 8%, not significant
- tumour outcome (control, treated, inhibition, significance) (Carcinogen: 4-(METHYLNITROSAMINO)-1-(3-PYRIDYL)-1-BUTANONE, 64091-91-4, Dose [Inhibitor]: 0, 15 MG/KG BW IN DIET FOR DURATION OF STUDY BEGINNING 2 WK PRIOR TO CARCINOGEN TREATMENT (STUDY DURATION: 25 WK), Species: MOUSE, Strain/Sex: STRAIN-A/FEMALE, Target Tissue: Type of Lesion: LUNG: TUMOR, Dose [Carcinogen]: 9.1 MG/MOUSE (TOTAL DOSE) ADMINISTERED IN DRINKING WATER OVER 7 WK): 23/24 (96%), 25/25 (100%), -4%, not significant
- outcome (Carcinogen: 4-(METHYLNITROSAMINO)-1-(3-PYRIDYL)-1-BUTANONE, 64091-91-4, Dose [Inhibitor]: 0, 123 MG/KG DIET FOR 2 WK BEGINNING 2 WK PRIOR TO CARCINOGEN TREATMENT (STUDY DURATION: 18 WK), Species: MOUSE, Strain/Sex: STRAIN-A/FEMALE, Target Tissue: Type of Lesion: LUNG: TUMOR, Dose [Carcinogen]: 2 MG IN 0.5 ML 0.9% SALINE ONCE): 25/25 (100%), 20/20 (100%), o%, not significant
- outcome (Carcinogen: 4-(METHYLNITROSAMINO)-1-(3-PYRIDYL)-1-BUTANONE, 64091-91-4, Dose [Inhibitor]: 0, 123 MG/KG DIET FOR 18 WK BEGINNING 2 WK PRIOR TO CARCINOGEN TREATMENT (STUDY DURATION: 18 WK), Species: MOUSE, Strain/Sex: STRAIN-A/FEMALE, Target Tissue: Type of Lesion: LUNG: TUMOR, Dose [Carcinogen]: 2 MG IN 0.5 ML 0.9% SALINE ONCE): 25/25 (100%), 24/24 (100%), o%, not significant
- outcome (Carcinogen: 4-(METHYLNITROSAMINO)-1-(3-PYRIDYL)-1-BUTANONE, 64091-91-4, Dose [Inhibitor]: 0, 123 MG/KG DIET FOR 25 WK BEGINNING 2 WK PRIOR TO CARCINOGEN TREATMENT (STUDY DURATION: 25 WK), Species: MOUSE, Strain/Sex: STRAIN-A/FEMALE, Target Tissue: Type of Lesion: LUNG: TUMOR, Dose [Carcinogen]: 62.4 UG/ML IN DRINKING WATER FOR 7 WK FOR A CUMULATIVE DOSE OF 9.1 MG/MOUSE): 25/25 (100%), 24/24 (100%), o%, not significant
- tumour outcome (control, treated, inhibition, significance) (Carcinogen: 4-(METHYLNITROSAMINO)-1-(3-PYRIDYL)-1-BUTANONE, 64091-91-4, Dose [Inhibitor]: 0, 123 MG/KG IN DIET FOR 9 WK BEGINNING 2 WK PRIOR TO CARCINOGEN TREATMENT (STUDY DURATION: 25 WK), Species: MOUSE, Strain/Sex: STRAIN-A/FEMALE, Target Tissue: Type of Lesion: FORESTOMACH: TUMOR, Dose [Carcinogen]: 9.1 MG IN DRINKING WATER FOR 7 WK): 7/25 (28%), 2/25 (8%), 71%, not significant
- tumour outcome (control, treated, inhibition, significance) (Carcinogen: 4-(METHYLNITROSAMINO)-1-(3-PYRIDYL)-1-BUTANONE, 64091-91-4, Dose [Inhibitor]: 0, 123 MG/KG IN DIET FOR 16 WK BEGINNING POST CARCINOGEN TREATMENT (STUDY DURATION: 25 WK), Species: MOUSE, Strain/Sex: STRAIN-A/FEMALE, Target Tissue: Type of Lesion: FORESTOMACH: TUMOR, Dose [Carcinogen]: 9.1 MG IN DRINKING WATER FOR 7 WK): 7/25 (28%), 3/22 (14%), 50%, not significant
- tumour outcome (control, treated, inhibition, significance) (Carcinogen: 4-(METHYLNITROSAMINO)-1-(3-PYRIDYL)-1-BUTANONE, 64091-91-8, Dose [Inhibitor]: 0, 123 MG/KG IN DIET FOR 25 WK BEGINNING 2 WK PRIOR TO CARCINOGEN TREATMENT (STUDY DURATION: 25 WK), Species: MOUSE, Strain/Sex: STRAIN-A/FEMALE, Target Tissue: Type of Lesion: FORESTOMACH: TUMOR, Dose [Carcinogen]: 9.1 MG IN DRINKING WATER FOR 7 WK): 7/25 (28%), 1/25 (4%), 86%, p<0.05
- tumour outcome (control, treated, inhibition, significance) (Carcinogen: AZOXYMETHANE, 25843-45-2, Dose [Inhibitor]: 0, 160 PPM IN DIET FOR DURATION OF STUDY BEGINNING 2 WK PRIOR TO CARCINOGEN TREATMENT (STUDY DURATION: 54 WK), Species: RAT, Strain/Sex: F344/MALE, Target Tissue: Type of Lesion: COLON: ADENOCARCINOMA, Dose [Carcinogen]: 15 MG/KG BW 1/WK FOR 2 WK): 81%, 47%, 42%, p<0.01
- tumour outcome (control, treated, inhibition, significance) (Carcinogen: AZOXYMETHANE, 25843-45-2, Dose [Inhibitor]: 0, 320 PPM IN DIET FOR 38 WK BEGINNING 14 WK POST CARCINOGEN TREATMENT (STUDY DURATION: 54 WK), Species: RAT, Strain/Sex: F344/MALE, Target Tissue: Type of Lesion: COLON: ADENOCARCINOMA, Dose [Carcinogen]: 15 MG/KG BW 1/WK FOR 2 WK): 81%, 26%, 68%, p<0.0001
- tumour outcome (control, treated, inhibition, significance) (Carcinogen: AZOXYMETHANE, 25843-45-2, Dose [Inhibitor]: 0, 320 PPM IN DIET FOR DURATION OF STUDY BEGINNING 2 WK PRIOR TO CARCINOGEN TREATMENT (STUDY DURATION: 54 WK), Species: RAT, Strain/Sex: F344/MALE, Target Tissue: Type of Lesion: COLON: ADENOCARCINOMA, Dose [Carcinogen]: 15 MG/KG BW 1/WK FOR 2 WK): 81%, 36%, 56%, p<0.0001
- tumour outcome (control, treated, inhibition, significance) (Carcinogen: AZOXYMETHANE, 25843-45-2, Dose [Inhibitor]: 0, 400 PPM IN DIET FOR 29 WK BEGINNING 1 WK POST CARCINOGEN TREATMENT (STUDY DURATION: 32 WK), Species: RAT, Strain/Sex: F344/MALE, Target Tissue: Type of Lesion: COLON: ADENOMA, Dose [Carcinogen]: 15 MG/KG BW 1/WK FOR 2 WK): 77%, 30%, 61%, p<0.05
- tumour outcome (control, treated, inhibition, significance) (Carcinogen: AZOXYMETHANE, 25843-45-2, Dose [Inhibitor]: 0, 400 PPM IN DIET FOR 29 WK BEGINNING 1 WK POST CARCINOGEN TREATMENT (STUDY DURATION: 32 WK), Species: RAT, Strain/Sex: F344/MALE, Target Tissue: Type of Lesion: COLON: CARCINOMA, Dose [Carcinogen]: 15 MG/KG BW 1/WK FOR 2 WK): 53%, 13%, 75%, p<0.05
- tumour outcome (control, treated, inhibition, significance) (Carcinogen: N-BUTYL-N-(4-HYDROXYBUTYL)NITROSAMINE, 3817-11-6, Dose [Inhibitor]: 0, 200 MG/KG DIET FOR 24 WK BEGINNING 1 WK PRIOR TO CARCINOGEN TREATMENT (STUDY DURATION: 24 WK), Species: MOUSE, Strain/Sex: BDF/MALE, Target Tissue: Type of Lesion: URINARY BLADDER: TRANSITIONAL CELL CARCINOMA, Dose [Carcinogen]: 7.5 MG 1/WK FOR 8 WK): 20/74 (27%), 6/73 (8%), 70%, p<0.01
- tumour outcome (control, treated, inhibition, significance) (Carcinogen: N-BUTYL-N-(4-HYDROXYBUTYL)NITROSAMINE, 3817-11-6, Dose [Inhibitor]: 0, 400 MG/KG DIET FOR 24 WK BEGINNING 1 WK PRIOR TO CARCINOGEN TREATMENT (STUDY DURATION: 24 WK), Species: MOUSE, Strain/Sex: BDF/MALE, Target Tissue: Type of Lesion: URINARY BLADDER: TRANSITIONAL CELL CARCINOMA, Dose [Carcinogen]: 7.5 MG 1/WK FOR 8 WK): 20/74 (27%), 2/75 (3%), 89%, p<0.01
- tumour outcome (control, treated, inhibition, significance) (Carcinogen: N-NITROSOMETHYLBENZYLAMINE, 937-40-6, Dose [Inhibitor]: 0, 125 PPM IN DIET FOR DURATION OF STUDY BEGINNING 1 WK POST CARCINOGEN TREATMENT (STUDY DURATION: 25 WK), Species: RAT, Strain/Sex: F344/MALE, Target Tissue: Type of Lesion: ESOPHAGUS: TUMOR, Dose [Carcinogen]: 1 MG/KG 3/WK FOR 5 WK): 15/15 (100%), 14/15 (93%), 7%, not significant
- tumour outcome (control, treated, inhibition, significance) (Carcinogen: N-NITROSOMETHYLBENZYLAMINE, 937-40-6, Dose [Inhibitor]: 0, 125 PPM IN DIET FOR DURATION OF STUDY BEGINNING 2 WK PRIOR TO CARCINOGEN TREATMENT (STUDY DURATION: 25 WK), Species: RAT, Strain/Sex: F344/MALE, Target Tissue: Type of Lesion: ESOPHAGUS: TUMOR, Dose [Carcinogen]: 1 MG/KG 3/WK FOR 5 WK): 15/15 (100%), 14/15 (93%), 7%, not significant
